For 5 compounds, EC50 and Activity results are on record in ChEMBL document CHEMBL4043113, “A novel antihypertension agent, sargachromenol D from marine brown algae, Sargassum siliquastrum, exerts dual action as an L-type Ca2+ channel blocker and endothelin A/B2 receptor antagonist” (Bioorg Med Chem, 2017).

Molecules are shown by their SMILES. Activity calls are given as the source filed them. The rule behind the calls is not given here.

Experiment [1] in a line: (§1) Antagonist activity at New Zealand rabbit endothelin A/B2 receptor assessed as dilation of endothelin-1 induced basilary artery contraction measured after 20 mins. Details: species or system Oryctolagus cuniculus.
The next experiment is filed under the species Oryctolagus cuniculus. The description is as §1.
Experiment [2] can be described thus: Antagonist activity at New Zealand rabbit L-type calcium channel assessed as dilation of K+-depolarization induced basilary artery contraction measured after 20 mins. Also noted: species or system Oryctolagus cuniculus.

On to `COc1ccccc1Oc1c(NS(=O)(=O)c2ccc(C(C)(C)C)cc2)nc(-c2ncccn2)nc1OCCO` [BOSENTAN], for which the EC50 (usually the concentration needed to bring the measured effect to its halfway point) in experiment [1] was determined as 530 nM.
Consider `CC(=O)CC/C=C(\C)CCC/C(C)=C\C(=O)CC(C)C`, for which the result in the experiment filed under Oryctolagus cuniculus was inactive.
As to `COCCOC(=O)C1=C(C)NC(C)=C(C(=O)OC(C)C)C1c1cccc([N+](=O)[O-])c1` (stereo unspecified) [NIMODIPINE], the EC50 in experiment [2] stood at 520 nM.
Regarding `C/C(=C\CCC(C)O)CCC/C(C)=C/C(=O)CC(C)C` (stereo unspecified), the EC50 in experiment [2] was found to be 3520 nM. In addition, in the experiment listed under Oryctolagus cuniculus, the result was inactive.
As to `CC(=O)CC/C=C(\C)CCC/C(C)=C/C(=O)CC(C)C`, in the experiment filed under Oryctolagus cuniculus, the outcome was inactive.
